Measurements from the supplement of paper PMC11061612.

Columns and labels:
Assay in all cases: Bliss excess, mean over the matrix (fraction); higher = more synergy
786-0 (Kidney Carcinoma) = test system: 786-0 (Kidney Carcinoma)
Method in brief: (§1)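 After 24 hours at 37°C and 5% CO2 in 1536-well plates, cells in DMEM/F12 or RPMI plus 10% FBS received two-drug dose matrices for 72 hours. Viability came from CellTiter-Glo 2.0 luminescence and was scaled as inhibition, anchored at 0 by vehicle wells and at 1 by blank wells. Combination Emax is taken as the second-highest inhibition in the matrix, and Bliss excess as the observed combination effect less EA + EB − EA·EB, with EA and EB the single-agent effects.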

[1] = test system: AN3-CA (Endometrial Carcinoma)
Method in brief: as §1

[2] = test system: CML-T1 (Chronic Myelogenous Leukemia)
Method in brief: as §1

[3] = test system: Calu-6 (Non-Small Cell Lung Carcinoma)
Method in brief: as §1

[4] = test system: Caov-3 (Ovarian Carcinoma)
Method in brief: as §1

[5] = test system: EB-3 (Burkitt's Lymphoma)
Method in brief: as §1

ES-2 (Ovarian Carcinoma) = test system: ES-2 (Ovarian Carcinoma)
Method in brief: as §1

[6] = test system: FLO-1 (Esophageal Adenocarcinoma)
Method in brief: as §1

[7] = test system: HTC-C3 (Thyroid Gland Carcinoma)
Method in brief: as §1

HuO-3N1 (Osteosarcoma) = test system: HuO-3N1 (Osteosarcoma)
Method in brief: as §1

[8] = test system: LAMA-84 (Chronic Myelogenous Leukemia)
Method in brief: as §1

[9] = test system: NCI-H1563 (Lung Adenocarcinoma)
Method in brief: as §1

[10] = test system: NCI-H1755 (Lung Adenocarcinoma)
Method in brief: as §1

[11] = test system: NCI-H196 (Small Cell Lung Carcinoma)
Method in brief: as §1

[12] = test system: PANC-02-03 (Pancreatic Carcinoma)
Method in brief: as §1

[13] = test system: RPMI-8866 (Chronic Myelogenous Leukemia)
Method in brief: as §1

RT4 (Bladder Carcinoma) = test system: RT4 (Bladder Carcinoma)
Method in brief: as §1

[14] = test system: SJRH30 (Rhabdomyosarcoma)
Method in brief: as §1

[15] = test system: SK-MM-2 (Plasma Cell Myeloma)
Method in brief: as §1

[16] = test system: SNU-175 (Colorectal Carcinoma)
Method in brief: as §1

| SMILES | Bliss excess (786-0 (Kidney Carcinoma)) | Bliss excess [1] | Bliss excess [2] | Bliss excess [3] | Bliss excess [4] | Bliss excess [5] | Bliss excess (ES-2 (Ovarian Carcinoma)) | Bliss excess [6] | Bliss excess [7] | Bliss excess (HuO-3N1 (Osteosarcoma)) | Bliss excess [8] | Bliss excess [9] | Bliss excess [10] | Bliss excess [11] | Bliss excess [12] | Bliss excess [13] | Bliss excess (RT4 (Bladder Carcinoma)) | Bliss excess [14] | Bliss excess [15] | Bliss excess [16] |
| --- | --- | --- | --- | --- | --- | --- | --- | --- | --- | --- | --- | --- | --- | --- | --- | --- | --- | --- | --- | --- |
| Cc1c2c(nn1C)CSCc1cc(n(C)n1)CSc1cc(c3ccccc3c1)OCCCc1c(C(=O)O)n(C)c3c-2c(Cl)ccc13 [AZD5991] + CCN(CCO)CCCOc1ccc2c(Nc3cc(CC(=O)Nc4cccc(F)c4)[nH]n3)ncnc2c1 [AZD2811] (first compound max 1 µM, 7x7, partner max 1 µM) | -0.0142 | 0.0922 | 0.0645 | -0.0096 | 0.0236 | -0.0197 | -0.0298 | 0.0347 | 0.0318 | 0.0023 | 0.128 | -0.0248 | 0.0561 | -0.029 | -0.0029 | 0.149 | 0.11 | 0.0922 | -0.0451 | -0.0794 |
| Cc1c2c(nn1C)CSCc1cc(n(C)n1)CSc1cc(c3ccccc3c1)OCCCc1c(C(=O)O)n(C)c3c-2c(Cl)ccc13 [AZD5991] + CN(C)CCCOc1ccc(-c2ccc3ncc4c(c3c2)n(C2CCOCC2)c(=O)n4C)cn1 [AZD0156] (first compound max 1 µM, 7x7, partner max 1 µM) | -0.0109 | -0.0338 | 0.0208 | 0.0052 | 0.0036 | -0.0005 | 0.0018 | -0.0135 | -0.0082 | -0.0067 | -0.0051 | -0.009 | -0.0214 | -0.0207 | -0.0241 | -0.026 | 0.0149 | 0.0026 | 0.0254 | -0.0515 |
| Cc1c2c(nn1C)CSCc1cc(n(C)n1)CSc1cc(c3ccccc3c1)OCCCc1c(C(=O)O)n(C)c3c-2c(Cl)ccc13 [AZD5991] + C[C@@H]1COCCN1C2=NC(=NC(=C2)C3(CC3)[S@](=N)(=O)C)C4=C5C=CNC5=NC=C4 [AZD6738] (first compound max 1 µM, 7x7, partner max 10 µM) | -0.0098 | 0.0454 | -0.012 | 0.0282 | 0.0293 | 0.0209 | 0.0424 | -0.0301 | -0.0103 | 0.0446 | -0.0056 | 0.0224 | -0.0171 | 0.0443 | 0.0205 | 0.0013 | 0.0537 | 0.0225 | -0.0607 | 0.135 |
| Cc1c2c(nn1C)CSCc1cc(n(C)n1)CSc1cc(c3ccccc3c1)OCCCc1c(C(=O)O)n(C)c3c-2c(Cl)ccc13 [AZD5991] + C[C@@H](Nc1cc(F)cc(F)c1)c1cc(C(=O)N(C)C)cc2c(=O)cc(N3CCOCC3)oc12 [AZD8186] (first compound max 1 µM, 7x7, partner max 3 µM) | 0.0005 | 0.0606 | -0.0081 | -0.0018 | 0.0338 | -0.0275 | -0.0108 | -0.0486 | -0.014 | 0.0324 | -0.0037 | 0.0003 | 0.0317 | -0.0353 | -0.0327 | -0.041 | 0.0434 | -0.0138 | -0.0419 | 0.0048 |
| Cc1c2c(nn1C)CSCc1cc(n(C)n1)CSc1cc(c3ccccc3c1)OCCCc1c(C(=O)O)n(C)c3c-2c(Cl)ccc13 [AZD5991] + Cc1cc2ncnn2cc1Nc1ncc2c(n1)n(C1CCOCC1)c(=O)n2C [AZD7648] (first compound max 1 µM, 7x7, partner max 10 µM) | -0.0341 | -0.0411 | -0.0205 | -0.0338 | -0.0436 | -0.0379 | -0.0545 | -0.0408 | -0.0558 | -0.0229 | -0.01 | -0.0185 | 0.0189 | -0.0431 | -0.0151 | -0.0497 | -0.0301 | -0.0214 | 0.0087 | -0.0125 |
| C[C@@H]1COCCN1c1cc(C2([S@](C)(=N)=O)CC2)nc(-c2ccnc3[nH]ccc23)n1 [AZD6738] + O=C(c1cc(Cc2n[nH]c(=O)c3ccccc23)ccc1F)N1CCN(C(=O)C2CC2)CC1 [Olaparib] (first compound max 10 µM, 7x7, partner max 10 µM) | 0.0473 | 0.0208 | -0.0182 | -0.0679 | -0.0231 | -0.0955 | -0.0136 | -0.0348 | 0.0226 | -0.0071 | 0.0233 | -0.0116 | -0.0131 | 0.0275 | 0.0287 | -0.0143 | 0.0357 | -0.0205 | -0.0084 | 0.0311 |
| Cc1cc2ncnn2cc1Nc1ncc2c(n1)n(C1CCOCC1)c(=O)n2C [AZD7648] + C=CCn1c(=O)c2cnc(Nc3ccc(N4CCN(C)CC4)cc3)nc2n1-c1cccc(C(C)(C)O)n1 [AZD1775] (first compound max 10 µM, partner max 1 µM) | 0.0502 | -0.0091 | 0.0112 | -0.0282 | -0.0869 | -0.102 | 0.0248 | -0.023 | 0.0255 | -0.0205 | 0.046 | -0.0041 | 0.0084 | -0.0249 | 0.0306 | -0.0616 | 0.0218 | 0.0139 | -0.0214 | -0.0043 |
